Reference: patent publication US20230295119A1, “SUBSTITUTED PYRIDINES FOR THE TREATMENT OF INFLAMMATORY DISEASES” (GOSSAMER BIO SERVICES, INC., priority 2020, published 2023)
pIC50: −log10 of the molar value.

Tests used:
TYK2 JH2 domain = TYK2 JH2 domain (Homo sapiens (Human), UniProt P29597); experiment: TYK2 JH2 NanoBRET assay; format: binding; settings: Table 20, read-out: TYK2 IC50
Outline: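 HEK293T cells transiently expressing NanoLuc-TYK2 JH2 fusion, incubated 2 h with compound and NanoBRET K10 tracer (0.5 µM final). Target engagement read as acceptor/donor BRET ratio after Nano-Glo substrate plus extracellular NanoLuc inhibitor.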

human JAK1 = human JAK1 (Homo sapiens (Human), UniProt P23458); experiment: JAK1 TR-FRET kinase assay; format: biochemical; settings: TR-FRET, JAK1 2.5 nM
human JAK2 = human JAK2 (Homo sapiens (Human), UniProt O60674); experiment: JAK2 TR-FRET kinase assay; format: biochemical; settings: JAK2 0.025 nM
human JAK3 = human JAK3 (Homo sapiens (Human), UniProt P52333); experiment: JAK3 TR-FRET kinase assay; format: biochemical; settings: JAK3 0.0125 nM
human JAK3, sequence (P52333 whole entry): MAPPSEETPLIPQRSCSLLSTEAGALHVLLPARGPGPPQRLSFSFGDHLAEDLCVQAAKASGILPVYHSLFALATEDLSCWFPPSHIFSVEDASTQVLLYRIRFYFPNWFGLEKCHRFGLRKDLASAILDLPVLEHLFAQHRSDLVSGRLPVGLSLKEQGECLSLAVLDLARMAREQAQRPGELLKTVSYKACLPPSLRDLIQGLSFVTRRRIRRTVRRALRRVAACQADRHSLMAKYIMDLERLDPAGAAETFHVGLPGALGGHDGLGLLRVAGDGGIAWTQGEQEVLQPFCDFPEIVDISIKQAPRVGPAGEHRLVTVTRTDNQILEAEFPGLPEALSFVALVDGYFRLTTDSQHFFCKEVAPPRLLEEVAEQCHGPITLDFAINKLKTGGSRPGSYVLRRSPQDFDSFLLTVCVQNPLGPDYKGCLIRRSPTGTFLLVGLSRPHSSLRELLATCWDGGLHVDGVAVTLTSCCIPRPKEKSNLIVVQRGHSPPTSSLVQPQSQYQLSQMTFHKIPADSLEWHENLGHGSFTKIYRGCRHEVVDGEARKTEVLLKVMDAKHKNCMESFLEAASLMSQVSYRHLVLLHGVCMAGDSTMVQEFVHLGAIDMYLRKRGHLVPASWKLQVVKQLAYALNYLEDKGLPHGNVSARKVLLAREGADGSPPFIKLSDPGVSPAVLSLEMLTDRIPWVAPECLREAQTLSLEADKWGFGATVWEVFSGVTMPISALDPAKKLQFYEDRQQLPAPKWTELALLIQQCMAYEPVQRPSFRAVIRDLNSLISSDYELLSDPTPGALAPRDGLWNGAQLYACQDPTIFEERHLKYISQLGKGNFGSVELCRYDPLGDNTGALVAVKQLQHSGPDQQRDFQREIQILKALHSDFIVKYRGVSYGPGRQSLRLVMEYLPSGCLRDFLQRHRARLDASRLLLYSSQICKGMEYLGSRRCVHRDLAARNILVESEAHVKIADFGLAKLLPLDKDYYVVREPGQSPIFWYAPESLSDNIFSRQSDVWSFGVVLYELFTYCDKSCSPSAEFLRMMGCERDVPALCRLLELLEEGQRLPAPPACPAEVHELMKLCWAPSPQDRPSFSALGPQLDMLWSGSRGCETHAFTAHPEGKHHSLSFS

human JAK2, sequence (O60674 whole entry): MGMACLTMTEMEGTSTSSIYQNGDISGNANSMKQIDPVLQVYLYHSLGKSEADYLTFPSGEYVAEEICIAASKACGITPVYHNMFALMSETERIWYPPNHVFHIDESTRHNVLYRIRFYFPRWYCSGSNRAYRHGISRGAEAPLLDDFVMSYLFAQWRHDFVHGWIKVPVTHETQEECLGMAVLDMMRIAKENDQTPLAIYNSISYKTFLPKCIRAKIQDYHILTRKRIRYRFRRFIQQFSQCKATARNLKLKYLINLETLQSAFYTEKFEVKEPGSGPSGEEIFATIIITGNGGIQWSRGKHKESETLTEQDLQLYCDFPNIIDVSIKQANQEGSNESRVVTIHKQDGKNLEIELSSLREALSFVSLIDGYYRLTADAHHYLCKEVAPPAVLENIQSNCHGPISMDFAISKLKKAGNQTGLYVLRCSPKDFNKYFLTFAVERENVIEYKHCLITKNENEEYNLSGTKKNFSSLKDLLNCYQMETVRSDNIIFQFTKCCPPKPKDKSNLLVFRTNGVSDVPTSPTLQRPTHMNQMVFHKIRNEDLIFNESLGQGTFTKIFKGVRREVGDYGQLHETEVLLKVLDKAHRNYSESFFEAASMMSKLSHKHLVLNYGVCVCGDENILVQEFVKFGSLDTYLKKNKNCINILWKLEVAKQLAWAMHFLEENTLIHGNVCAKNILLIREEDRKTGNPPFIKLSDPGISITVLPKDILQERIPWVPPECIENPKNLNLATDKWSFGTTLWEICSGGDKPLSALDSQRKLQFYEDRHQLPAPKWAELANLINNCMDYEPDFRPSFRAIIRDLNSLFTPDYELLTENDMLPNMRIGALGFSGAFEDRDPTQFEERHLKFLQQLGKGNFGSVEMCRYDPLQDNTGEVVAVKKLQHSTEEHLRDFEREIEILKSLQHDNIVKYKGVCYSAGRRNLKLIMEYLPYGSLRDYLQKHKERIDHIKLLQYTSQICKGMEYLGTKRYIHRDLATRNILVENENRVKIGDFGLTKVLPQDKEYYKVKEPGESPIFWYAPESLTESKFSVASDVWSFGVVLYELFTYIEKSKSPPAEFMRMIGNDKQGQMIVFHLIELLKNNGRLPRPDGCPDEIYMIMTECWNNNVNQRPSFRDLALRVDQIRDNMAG
human JAK1, sequence (P23458 whole entry): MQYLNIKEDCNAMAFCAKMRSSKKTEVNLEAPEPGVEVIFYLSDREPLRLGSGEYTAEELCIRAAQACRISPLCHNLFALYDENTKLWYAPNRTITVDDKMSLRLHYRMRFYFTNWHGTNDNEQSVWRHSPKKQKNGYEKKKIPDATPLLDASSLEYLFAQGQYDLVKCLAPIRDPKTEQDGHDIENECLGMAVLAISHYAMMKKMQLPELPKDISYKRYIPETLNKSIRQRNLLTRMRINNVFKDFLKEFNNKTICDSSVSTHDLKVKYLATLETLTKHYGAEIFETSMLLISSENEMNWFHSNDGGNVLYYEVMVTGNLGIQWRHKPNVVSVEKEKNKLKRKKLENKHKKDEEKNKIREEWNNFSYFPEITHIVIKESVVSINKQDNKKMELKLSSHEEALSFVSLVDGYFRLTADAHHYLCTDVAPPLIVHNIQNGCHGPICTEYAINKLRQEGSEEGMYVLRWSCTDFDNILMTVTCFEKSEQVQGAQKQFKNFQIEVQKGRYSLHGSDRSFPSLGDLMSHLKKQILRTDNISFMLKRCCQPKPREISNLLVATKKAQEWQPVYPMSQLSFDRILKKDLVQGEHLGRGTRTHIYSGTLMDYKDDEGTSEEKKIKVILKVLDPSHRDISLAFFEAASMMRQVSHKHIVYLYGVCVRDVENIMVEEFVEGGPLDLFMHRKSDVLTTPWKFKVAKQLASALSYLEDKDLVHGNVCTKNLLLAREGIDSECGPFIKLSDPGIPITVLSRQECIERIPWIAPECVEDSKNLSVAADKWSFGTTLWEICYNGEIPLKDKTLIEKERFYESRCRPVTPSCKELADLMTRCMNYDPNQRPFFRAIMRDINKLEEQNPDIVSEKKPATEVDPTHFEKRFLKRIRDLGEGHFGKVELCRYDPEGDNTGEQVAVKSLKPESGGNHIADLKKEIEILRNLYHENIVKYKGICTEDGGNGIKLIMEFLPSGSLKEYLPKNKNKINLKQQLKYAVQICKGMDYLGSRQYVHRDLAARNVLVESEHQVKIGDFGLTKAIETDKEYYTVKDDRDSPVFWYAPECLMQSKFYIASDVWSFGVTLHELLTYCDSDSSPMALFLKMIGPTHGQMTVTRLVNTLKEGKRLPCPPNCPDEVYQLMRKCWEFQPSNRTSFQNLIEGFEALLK
TYK2 JH2 domain, sequence (P29597 589-875): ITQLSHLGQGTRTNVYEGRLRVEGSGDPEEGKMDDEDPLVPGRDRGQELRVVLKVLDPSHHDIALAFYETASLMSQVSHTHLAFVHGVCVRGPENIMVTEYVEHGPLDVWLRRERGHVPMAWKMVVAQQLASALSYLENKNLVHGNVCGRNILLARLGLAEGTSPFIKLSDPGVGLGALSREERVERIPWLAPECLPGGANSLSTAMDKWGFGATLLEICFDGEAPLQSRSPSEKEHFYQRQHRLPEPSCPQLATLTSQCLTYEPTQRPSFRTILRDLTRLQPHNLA

Compound	pIC50 (TYK2 JH2 domain)	pIC50 (human JAK1)	pIC50 (human JAK2)	pIC50 (human JAK3)
CCC(=O)c1cnc(Nc2cc(C(F)(F)F)c(CN(C)C)cn2)cc1Nc1cccc(-c2ncn(C)n2)c1OC [Compound 9SSSS]	7.30 to 8.30	≤ 6.30	≤ 6.30	≤ 6.30
CCC(=O)c1cnc(Nc2cnc(CN(C)C)cn2)cc1Nc1cccc(-c2ncn(C)n2)c1OC [Compound 9SSS]	> 8.30	≤ 6.30	≤ 6.30	≤ 6.30
CCC(=O)c1cnc(Nc2ccc(CN3CCOCC3)cn2)cc1Nc1cccc(-c2ncn(C)n2)c1OC [Compound 9SS]	> 8.30	≤ 6.30	≤ 6.30	≤ 6.30
CCC(=O)c1cnc(Nc2ccc(C(NC)C(F)(F)F)cn2)cc1Nc1cccc(-c2ncn(C)n2)c1OC (centres unmarked) [Compound 9S]	> 8.30	≤ 6.30	6.30 to 7.30	≤ 6.30
CCC(=O)c1cnc(Nc2nccc(CN(C)C)c2F)cc1Nc1cccc(-c2ncn(C)n2)c1OC [Compound 9TTTT]	7.30 to 8.30	≤ 6.30	≤ 6.30	≤ 6.30
CCC(=O)c1cnc(Nc2cnc(C(N)C(F)(F)F)cn2)cc1Nc1cccc(-c2ncn(C)n2)c1OC (centres unmarked) [Compound 9TTT]	7.30 to 8.30	≤ 6.30	≤ 6.30	≤ 6.30
CCC(=O)c1cnc(Nc2ccc(CN3[C@H](C)COC[C@@H]3C)cn2)cc1Nc1cccc(-c2ncn(C)n2)c1OC [Compound 9TT]	> 8.30	≤ 6.30	6.30 to 7.30	6.30 to 7.30
CCC(=O)c1cnc(Nc2ccc(CN(C)C(C)C)cn2)cc1Nc1cccc(-c2ncn(C)n2)c1OC [Compound 9T]	> 8.30	≤ 6.30	≤ 6.30	≤ 6.30
CCC(=O)c1cnc(Nc2nc(CN(C)C)ccc2F)cc1Nc1cccc(-c2ncn(C)n2)c1OC [Compound 9UUUU]	6.30 to 7.30	≤ 6.30	≤ 6.30	≤ 6.30
CCC(=O)c1cnc(Nc2cnc(C(NC)C(F)(F)F)cn2)cc1Nc1cccc(-c2ncn(C)n2)c1OC (centres unmarked) [Compound 9UUU]	7.30 to 8.30	≤ 6.30	≤ 6.30	≤ 6.30
CCC(=O)c1cnc(Nc2ccc(CN3C[C@@H](C)O[C@@H](C)C3)cn2)cc1Nc1cccc(-c2ncn(C)n2)c1OC [Compound 9UU]	> 8.30	≤ 6.30	≤ 6.30	≤ 6.30
CCC(=O)c1cnc(Nc2ccc(CN(C)CC)cn2)cc1Nc1cccc(-c2ncn(C)n2)c1OC [Compound 9U]	> 8.30	≤ 6.30	≤ 6.30	≤ 6.30
CCC(=O)c1cnc(Nc2cnc(C(N(C)C)C(F)(F)F)cn2)cc1Nc1cccc(-c2ncn(C)n2)c1OC (centres unmarked) [Compound 9VVV]	7.30 to 8.30	≤ 6.30	≤ 6.30	≤ 6.30
CCC(=O)c1cnc(Nc2ccc(CN3CCS(=O)(=O)CC3)cn2)cc1Nc1cccc(-c2ncn(C)n2)c1OC [Compound 9VV]	> 8.30	≤ 6.30	6.30 to 7.30	6.30 to 7.30
CCC(=O)c1cnc(Nc2ccc(C(N(C)C)C(F)(F)F)cn2)cc1Nc1cccc(-c2ncn(C)n2)c1OC (centres unmarked) [Compound 9V]	> 8.30	≤ 6.30	≤ 6.30	≤ 6.30
CCC(=O)c1cnc(Nc2cnc(CN(C)CC(F)F)cn2)cc1Nc1cccc(-c2ncn(C)n2)c1OC [Compound 9WWW]	7.30 to 8.30	≤ 6.30	≤ 6.30	≤ 6.30
CCC(=O)c1cnc(Nc2ccc(CN3CCS(=N)(=O)CC3)cn2)cc1Nc1cccc(-c2ncn(C)n2)c1OC [Compound 9WW]	7.30 to 8.30	≤ 6.30	6.30 to 7.30	6.30 to 7.30
[2H]C([2H])([2H])N(Cc1ccc(Nc2cc(Nc3cccc(-c4ncn(C)n4)c3OC)c(C(=O)CC)cn2)nc1)C([2H])([2H])[2H] [Compound 9W]	> 8.30	≤ 6.30	≤ 6.30	≤ 6.30
CCC(=O)c1cnc(Nc2cnc(CN(C)CC(F)(F)F)cn2)cc1Nc1cccc(-c2ncn(C)n2)c1OC [Compound 9XXX]	7.30 to 8.30	≤ 6.30	≤ 6.30	≤ 6.30
CCC(=O)c1cnc(Nc2ccc(CN3C4COCC3C4)cn2)cc1Nc1cccc(-c2ncn(C)n2)c1OC [Compound 9XX]	> 8.30	≤ 6.30	6.30 to 7.30	6.30 to 7.30
